Test system: Hepatocyte
Conditions: rat, hepatocytes, 10 min, 5 µM

CLb: 52%
SMILES: O=C(O)C[C@H](O)C[C@H](O)/C=C/c1c(C2CC2)nc2ccccc2c1-c1ccc(F)cc1 [PITAVASTATIN]

— ChEMBL document CHEMBL3526085, “Decreased hepatic breast cancer resistance protein expression and function in multidrug resistance-associated protein 2-deficient (TR⁻) rats” (Drug Metab Dispos, 2011)
